17 compounds from PubChem BioAssay AID220 (DTP/NCI, 2004) can be followed below.

For this experiment, the system named is CD8F1 mice, subcutaneous mammary adenocarcinoma, T/C%. The experiment in a line: NCI In Vivo Anticancer Drug Screen. Data for tumor model Mammary Adenocarcinoma CD8F1 (subcutaneous) in CD8F1. As to conditions: higher = larger tumour. Summed up: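 Ratio of treated to vehicle-control outcome, based on either survival or tumor size, in mice bearing transplantable tumors given the test compound.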

The mark [1] stands for this setting: endpoint: median tumor weight change, dose: 125.0 mg/kg/injection, schedule: Q01DX001 (ip), vehicle: saline with Tween-80.
The mark [2] stands for this setting: endpoint: median tumor weight change, dose: 250.0 mg/kg/injection, schedule: Q01DX001 (ip), vehicle: saline with Tween-80.
Where [3] appears, read: endpoint: median tumor weight change, dose: 500.0 mg/kg/injection, schedule: Q01DX001 (ip), vehicle: saline with Tween-80.
Setting [4] is: endpoint: median tumor weight change, dose: 1000.0 mg/kg/injection, schedule: Q01DX001 (ip), vehicle: saline with Tween-80.
The mark [5] stands for this setting: endpoint: median tumor weight (est.), dose: 25.0 mg/kg/injection, schedule: Q07DX005 (ip), vehicle: saline with Tween-80.
The mark [6] stands for this setting: endpoint: median tumor weight (est.), dose: 800.0 mg/kg/injection, schedule: Q07DX005 (ip), vehicle: saline with Tween-80.
The mark [7] stands for this setting: endpoint: median tumor weight change, dose: 62.5 mg/kg/injection, schedule: Q01DX001 (ip), vehicle: saline with Tween-80.

“And” between values parts separate entries of the source, which are not always exact repeats. Identical values can stand only once. Results filed as inconclusive are left out. Positions of bridges follow the written chain, without caps; N, C: chain ends. Residues, ends and D or L forms follow the SMILES beside them.

For `CC1CCC2N(C1)CC1C3CC4C(CC(=O)C5CC(O)CCC54C)C3CCC1C2(C)O` (stereo not given), the T/C runs as follows: (endpoint: mean tumor weight, dose: 2.5 mg/kg/injection, schedule: Q07DX006 (ip), vehicle: saline with Tween-80) 87 % of control; (endpoint: mean tumor weight, dose: 5.0 mg/kg/injection, schedule: Q07DX006 (ip), vehicle: saline with Tween-80) 81 % of control; (endpoint: mean tumor weight, dose: 10.0 mg/kg/injection, schedule: Q07DX006 (ip), vehicle: saline with Tween-80) 90 % of control; (endpoint: mean tumor weight, dose: 20.0 mg/kg/injection, schedule: Q07DX006 (ip), vehicle: saline with Tween-80) 89 % of control.

`CO[C@@]12[C@@H]3N[C@@H]3CN1C1=C(C(=O)C(NCC3CCCO3)=C(C)C1=O)[C@@H]2COC(N)=O` (stereo not given in full): the T/C (endpoint: median tumor weight change, dose: 6.25 mg/kg/injection, schedule: Q01DX001 (ip), vehicle: distilled water + Tween-80) is 44 % of control.

As to `Nc1ccn([C@@H](C=O)O[C@@H](C=O)CO)c(=O)n1`, the T/C runs as follows: (endpoint: median tumor weight (est.), dose: 25.0 mg/kg/injection, schedule: Q07DX005 (ip), vehicle: suspension in saline) 122 % of control; (endpoint: median tumor weight (est.), dose: 50.0 mg/kg/injection, schedule: Q07DX005 (ip), vehicle: suspension in saline) 188 % of control; (endpoint: median tumor weight (est.), dose: 100.0 mg/kg/injection, schedule: Q07DX005 (ip), vehicle: suspension in saline) 151 % of control; (endpoint: median tumor weight (est.), dose: 200.0 mg/kg/injection, schedule: Q07DX005 (ip), vehicle: suspension in saline) 105 % of control.

As to `CC(=O)Oc1c[nH]c(=O)[nH]c1=O`, the T/C was 62 % of control under setting [1], 84 % of control under setting [2], 32 % of control under setting [3] and 32 % of control under setting [4].

Consider `NC(=S)c1cn(C2OC(CO)C(O)C2O)c2ncnc(N)c12` (stereo not given), for which the T/C (endpoint: median tumor weight change, dose: 3.12 mg/kg/injection, schedule: Q01DX001 (ip), vehicle: suspension in saline) was 96 % of control; the T/C (endpoint: median tumor weight change, dose: 6.25 mg/kg/injection, schedule: Q01DX001 (ip), vehicle: suspension in saline) was 68 % of control; the T/C (endpoint: median tumor weight change, dose: 12.5 mg/kg/injection, schedule: Q01DX001 (ip), vehicle: suspension in saline) is 76 % of control.

On to `CCC(CC)COC(=O)c1ccccc1C(=O)OCC(CC)CC`, for which the T/C reads like this: under setting [5], 83 % of control; (endpoint: median tumor weight (est.), dose: 200.0 mg/kg/injection, schedule: Q07DX005 (ip), vehicle: saline with Tween-80) 65 % of control; (endpoint: median tumor weight (est.), dose: 400.0 mg/kg/injection, schedule: Q07DX005 (ip), vehicle: saline with Tween-80) 75 % of control; under setting [6], 64 % of control.

Regarding `O=C(/C=C(\Cl)C(=O)NO)NO`, the T/C was 111 % of control (endpoint: median tumor weight change, dose: 62.5 mg/kg/injection, schedule: Q01DX001 (ip), vehicle: suspension in saline); 79 % of control (endpoint: median tumor weight change, dose: 125.0 mg/kg/injection, schedule: Q01DX001 (ip), vehicle: suspension in saline); 83 % of control (endpoint: median tumor weight change, dose: 250.0 mg/kg/injection, schedule: Q01DX001 (ip), vehicle: suspension in saline).

`O=C(Nc1nncs1)c1ccncc1`: the T/C was 151 % of control under setting [5] and 69 % of control under setting [6].

As to `C[N+](C)(C)c1ncnc2nc[nH]c12`, the T/C was 194 % of control (endpoint: median tumor weight (est.), dose: 25.0 mg/kg/injection, schedule: Q07DX005 (ip), vehicle: saline); 259 % of control (endpoint: median tumor weight (est.), dose: 100.0 mg/kg/injection, schedule: Q07DX005 (ip), vehicle: saline); 186 % of control (endpoint: median tumor weight (est.), dose: 200.0 mg/kg/injection, schedule: Q07DX005 (ip), vehicle: saline).

In the case of `CCc1ccccc1N1CCN(C(=O)c2cc(OC)c(OC)c(OC)c2)CC1`, the T/C (endpoint: median tumor weight (est.), dose: 12.5 mg/kg/injection, schedule: Q07DX003 (ip), vehicle: Klucel (hydroxypropylcellulose) (HPC)) was 68 % of control; the T/C (endpoint: median tumor weight (est.), dose: 12.5 mg/kg/injection, schedule: Q07DX004 (ip), vehicle: Klucel (hydroxypropylcellulose) (HPC)) is 50 % of control; the T/C (endpoint: median tumor weight (est.), dose: 50.0 mg/kg/injection, schedule: Q04DX005 (ip), vehicle: Klucel (hydroxypropylcellulose) (HPC)) was 167 % of control and 269 % of control; the T/C (endpoint: median tumor weight (est.), dose: 50.0 mg/kg/injection, schedule: Q07DX003 (ip), vehicle: Klucel (hydroxypropylcellulose) (HPC)) is 182 % of control; the T/C (endpoint: median tumor weight (est.), dose: 100.0 mg/kg/injection, schedule: Q04DX005 (ip), vehicle: Klucel (hydroxypropylcellulose) (HPC)) was 152 % of control and 206 % of control; the T/C (endpoint: median tumor weight (est.), dose: 100.0 mg/kg/injection, schedule: Q07DX003 (ip), vehicle: Klucel (hydroxypropylcellulose) (HPC)) is 112 % of control. In addition, the T/C (endpoint: median tumor weight (est.), dose: 100.0 mg/kg/injection, schedule: Q07DX004 (ip), vehicle: Klucel (hydroxypropylcellulose) (HPC)) is 274 % of control; the T/C (endpoint: median tumor weight (est.), dose: 200.0 mg/kg/injection, schedule: Q07DX003 (ip), vehicle: Klucel (hydroxypropylcellulose) (HPC)) is 111 % of control; the T/C (endpoint: median tumor weight (est.), dose: 400.0 mg/kg/injection, schedule: Q04DX005 (ip), vehicle: Klucel (hydroxypropylcellulose) (HPC)) was 44 % of control; the T/C (endpoint: median tumor weight (est.), dose: 400.0 mg/kg/injection, schedule: Q07DX003 (ip), vehicle: Klucel (hydroxypropylcellulose) (HPC)) was 36 % of control.

Take `Cc1cc(NCCCCCCNc2cc(C)nc3cc(N(C)C)ccc23)c2ccc(N(C)C)cc2n1`: the T/C is 42 % of control (endpoint: median tumor weight change, dose: 31.0 mg/kg/injection, schedule: Q01DX001 (ip), vehicle: distilled water + Tween-80 + alcohol); 103 % of control (endpoint: median tumor weight change, dose: 62.0 mg/kg/injection, schedule: Q01DX001 (ip), vehicle: distilled water + Tween-80 + alcohol); 36 % of control (endpoint: median tumor weight change, dose: 125.0 mg/kg/injection, schedule: Q01DX001 (ip), vehicle: distilled water + Tween-80 + alcohol).

Consider `Cc1c(CNc2ccc(C(=O)NC(CC(=O)O)C(=O)O)cc2)ccc2nc(N)nc(N)c12` (stereo not given), for which the T/C runs as follows: (endpoint: median tumor weight (est.), dose: 3.12 mg/kg/injection, schedule: Q07DX005 (ip), vehicle: saline with Tween-80) 28 % of control; (endpoint: median tumor weight (est.), dose: 3.13 mg/kg/injection, schedule: Q07DX005 (ip), vehicle: saline with Tween-80) 26 % of control; (endpoint: median tumor weight (est.), dose: 6.25 mg/kg/injection, schedule: Q07DX005 (ip), vehicle: saline with Tween-80) 29 % of control.

As to `Nc1nc(N)c2cc(S(=O)(=O)c3ccccc3)ccc2n1`, the T/C is, setting by setting: under setting [7], 102 % of control; under setting [1], 109 % of control; under setting [2], 67 % of control; under setting [3], 42 % of control; under setting [4], 40 % of control.

For the compound `CCCCCCCCCCCCCCCC(=O)O[C@@]12C[C@@H](C)[C@@]3(O)[C@@H](C=C(CO)C[C@]4(O)C(=O)C(C)=C[C@@H]34)[C@@H]1C2(C)C`, the T/C (endpoint: median tumor weight (est.), dose: 0.06 mg/kg/injection, schedule: Q07DX005 (ip), vehicle: saline) was 84 % of control; the T/C (endpoint: median tumor weight (est.), dose: 0.12 mg/kg/injection, schedule: Q07DX005 (ip), vehicle: saline) is 68 % of control; the T/C (endpoint: median tumor weight (est.), dose: 0.25 mg/kg/injection, schedule: Q07DX005 (ip), vehicle: saline) was 62 % of control; the T/C (endpoint: median tumor weight (est.), dose: 0.5 mg/kg/injection, schedule: Q07DX005 (ip), vehicle: saline) was 97 % of control; the T/C (endpoint: median tumor weight (est.), dose: 1.0 mg/kg/injection, schedule: Q07DX005 (ip), vehicle: saline) is 68 % of control.

For `CCC(C)C1NC(=O)C(CC(C)C)NC(=O)C(C(C)C)NC(=O)C2CSSCC(NC1=O)C(=O)N2` (stereo not given) (cyclo(CCVLI); disulfide 1-2; configuration not given here), the T/C is 78 % of control (endpoint: median tumor weight change, dose: 0.31 mg/kg/injection, schedule: Q01DX001 (ip), vehicle: Klucel (hydroxypropylcellulose) (HPC)); 118 % of control (endpoint: median tumor weight change, dose: 0.62 mg/kg/injection, schedule: Q01DX001 (ip), vehicle: Klucel (hydroxypropylcellulose) (HPC)); 74 % of control (endpoint: median tumor weight change, dose: 1.25 mg/kg/injection, schedule: Q01DX001 (ip), vehicle: Klucel (hydroxypropylcellulose) (HPC)); 94 % of control (endpoint: median tumor weight change, dose: 2.5 mg/kg/injection, schedule: Q01DX001 (ip), vehicle: Klucel (hydroxypropylcellulose) (HPC)); 111 % of control (endpoint: median tumor weight change, dose: 5.0 mg/kg/injection, schedule: Q01DX001 (ip), vehicle: Klucel (hydroxypropylcellulose) (HPC)).

For the compound `COc1ccc2c(c1[N+](=O)[O-])CC[C@@H]1[C@@H]2CC[C@]2(C)C(=O)CC[C@@H]12`, the T/C runs as follows: under setting [7], 90 % of control; under setting [2], 84 % of control; under setting [3], 100 % of control.

As to `CCC[CH2][Hg][Cl]`, the T/C was 197 % of control (endpoint: median tumor weight (est.), dose: 2.5 mg/kg/injection, schedule: Q07DX005 (ip), vehicle: Klucel (hydroxypropylcellulose) (HPC)); 112 % of control (endpoint: median tumor weight (est.), dose: 5.0 mg/kg/injection, schedule: Q07DX005 (ip), vehicle: Klucel (hydroxypropylcellulose) (HPC)); 110 % of control (endpoint: median tumor weight (est.), dose: 20.0 mg/kg/injection, schedule: Q07DX005 (ip), vehicle: Klucel (hydroxypropylcellulose) (HPC)).
